The values below come from patent US20100291074A1, “CYCLOPHILIN D-AMYLOID BETA INTERACTION POTENTIATES MITOCHONDRIAL DYSFUNCTION IN A TRANSGENIC MOUSE MODEL OF ALZHEIMER'S DISEASE” (COLUMBIA UNIVERSITY IN THE CITY OF NEW YORK, priority 2007, published 2010).

Each structure is given as a SMILES string. Entries after “also recorded” stand apart in the source; their conditions may differ.

The experiment has as its system cultured cortical neurons. Put plainly: Mitochondrial membrane potential (TMRM) in cultured neurons. To be noted: for TMRM-positive neurons after H2O2: H2O2 one hour, FACS. It counts as cell-based, mice. How it is done: FIGS. 5. […] (A) Western blot of cultured cortical neuron derived from nonTg and CypD-deficient mice was performed by specific α-CypD IgG. […] (F-G) FACS analysis of TMRM staining in nonTg and CypD−/− neurons treated with increasing concentrations of H2O2 for one hour. (G) Analyses of % TMRM positive neurons combined 3-4 independent experiments. […] (H-I) TMRM staining in H2O2-treated nonTg and CypD−/− neurons as shown by confocal microscopy in live cells. (J-L). FACS analysis of propidium iodide (PI) staining in nonTg and CypD−/−neurons treated with H2O2 for one hour. Percentages of PI-positive and -negative cells were shown as red line and black line, respectively.
Mitochondrial membrane potential […] was determined in primary cultured neuron derived from nonTg and Tg CypD−/− mice.
Murine cortical neurons were cultured as described. Briefly, murine cortex were dissected from Day 1 pups of nonTg and Tg CypD−/− mice, dissociated with 0.05% trypsin, and triturated in ice-cold Neurobasal A medium. Cells were then centrifuged at 200 g for 5 min to get rid of the debris. The resulting pellets were resuspended in culture medium (neurobasal A with 2% B27 supplement, 0.5 mM L-glutamine, 50 U/ml penicillin, and 50 μg/ml streptomycin) and plated onto poly-L-lysine-coated culture plates with an appropriate density. Aβ or H2O2 was added to the cultured medium at day 5 cultured neurons.
Primary cultured neurons derived from nonTg and CypD-deficient mice were incubated with 2 μM oligomeric Aβ, or H2O2 for various time points. The mitochondrial ROS was detected with 1 μM MitoSox staining The cytochrome c release was assessed by ELISA (Active Motif). Mitochondrial membrane potential was determined by TMRM labeling and analyzed by flow cytometry as described above. Apoptosis was assessed by TUNEL assay using in situ cell death detection kit (Roche).

Turning to `OO` [H2O2], the “TMRM-positive neurons after H2O2” value (CypD−/− neurons, from 73% before) turned out to be 32% and the “TMRM-positive neurons after H2O2” value (nonTg neurons, from 73.8% before) turned out to be 5.5%.
Regarding `N#CC(C#N)=NNc1ccc(OC(F)(F)F)cc1` [FCCP, carbonyl cyanide p-(trifluoromethoxy) phenylhydrazone], where the note is “FCCP (1 μM), nonTg and CypD−/− neurons”, the “mitochondrial membrane potential ΔΨm (TMRM)” value was “able to dissipate mitochondria ΔΨ; also recorded: dissipated membrane ΔΨm”.
